Consider 1 compound from patent US9012500B2, “PKC-ε activator” (Nishizaki Bioinformation Research Institute, priority 2010, dated 2015).

Structures are written as SMILES.

One test has as its target T1, PKC-ε (Rattus norvegicus, UniProt P09216).
T1 construct: PC-12 cells were transfected with PKC-ε siRNA or NC siRNA; endogenous in cells; host or cells: rat PC-12 cells
T1 sequence (P09216 1-737): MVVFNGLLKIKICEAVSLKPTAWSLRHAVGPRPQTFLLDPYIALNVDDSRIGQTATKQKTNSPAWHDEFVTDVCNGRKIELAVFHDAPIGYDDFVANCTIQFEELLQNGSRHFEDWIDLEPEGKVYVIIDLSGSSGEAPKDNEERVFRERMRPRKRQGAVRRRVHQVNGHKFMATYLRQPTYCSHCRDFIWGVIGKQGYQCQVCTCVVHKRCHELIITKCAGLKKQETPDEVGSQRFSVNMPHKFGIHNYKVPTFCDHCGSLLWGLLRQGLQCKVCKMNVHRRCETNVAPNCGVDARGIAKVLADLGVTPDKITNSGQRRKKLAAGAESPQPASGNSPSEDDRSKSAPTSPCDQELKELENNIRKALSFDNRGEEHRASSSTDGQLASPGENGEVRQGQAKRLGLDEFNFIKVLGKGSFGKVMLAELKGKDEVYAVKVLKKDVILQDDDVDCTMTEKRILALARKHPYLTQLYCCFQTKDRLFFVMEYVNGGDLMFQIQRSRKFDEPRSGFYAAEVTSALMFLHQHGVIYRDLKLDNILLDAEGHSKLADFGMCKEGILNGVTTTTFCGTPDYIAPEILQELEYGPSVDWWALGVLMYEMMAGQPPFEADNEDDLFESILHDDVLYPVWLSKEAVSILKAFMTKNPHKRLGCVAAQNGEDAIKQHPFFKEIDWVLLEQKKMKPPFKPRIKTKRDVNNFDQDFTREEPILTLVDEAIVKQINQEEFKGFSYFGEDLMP
As to the kind of experiment: Intracellular PKC assay after knockdown of PKC-ε (siRNA) in PC-12 cells. It is filed as cell-based. Conditions: PKC-ε siRNA vs NC siRNA, FIG. 3. As for the experimental part:
According to the method described in a publication [Kanno T et al., J Lipid Res 47 (6):1146-1156, 2006], the PKC activity of rat PC-12 cells was assayed. The cells were treated with each DCP-LA optical isomer at 37° C. for 10 min. The treatment was performed in an extracellular solution [137 mM NaCl, 5.4 mM KCl, 10 mM MgCl2, 5 mM ethyleneglycol-bis(2-aminoethylether)-N,N,N′,N′-tetraacetic acid (EGTA), 0.3 mM Na2HPO4, 0.4 mM K2HPO4 and 20 mM 4-(2-hydroxyethyl)-1-piperazin-ethanesulfonic acid, pH 7.2]. Then, the cells were rinsed with 100 μl of phosphate-buffered saline (PBS) in the absence of Ca^2+, and incubated in an extracellular solution (50 μl) containing 50 μg/ml digitonin, 25 mM glycerol 2-phosphate, 200 μM ATP and 100 μM synthetic PKC substrate peptide (Pyr-Lys-Arg-Pro-Ser-Gln-Arg-Ser-Lys-Tyr-Leu (SEQ ID NO: 1); MW, 1,374; Pyr: […]) at 37° C. for 15 min. […] A substrate peptide peak and a new resultant product peak were detected at the absorbance of 214 nm (SPD-10Avp UV-VIS detector, Shimadzu Co., Kyoto, Japan). […] The molecular weight was calculated from the two standard spectra of bradykinin (MW 1060.2) and substance P (MW 1672.9).
The areas of the non-phosphorylated and phosphorylated substrate peptides were measured (total area corresponds to the concentration of PKC substrate peptide used). […]

In test [1] the test system is senescence-accelerated mouse (SAMP8). As to the kind of experiment: Water maze test in senescence-accelerated mouse (SAMP8). The class given is in vivo. Conditions: SAMP8, 0.25 mg/kg orally once a day, 8 days. As for the experimental part:
Using senescence-accelerated mouse (accelerated-senescence-prone mice 8: SAMP8) and normal senescence mouse (accelerated-senescence-resistant mice 1: SAMR1) as a control thereof, a water maze test was performed. Male SAMP8 and SAMR1 (22- to 25-week-old) were available from Takeda Pharmaceutical Company Limited (Osaka, Japan). The mice were individually raised in a cage at 23±1° C., 12 hr light/dark cycle (lighted at 7:00 am), and allowed to freely ingest feed (solid feed) and water.
Racemate DCP-LA and 4 optical isomers DCP-LA (α,α-, α,β-, β,α-, β,β-DCP-LA), each dissolved in 0.1 ml polyethylene glycol (PEG), or 0.1 ml PEG were orally administered once a day from the day when the water maze test was started. For each group, the water maze test was performed twice a day for 8 days, and the time required to reach a platform (acquisition latency) was measured.
For the water maze test, a circular plastic water tank (diameter 90 cm, depth 36 cm) was used. The inside of the water tank was completely painted in black, and dark water with India ink was filled up to 20 cm from the bottom (22° C.). A platform (diameter 11 cm) painted in black was placed in water such that it was 1 cm below the water surface. The water tank was placed in a test room, and several marks seen by the mice from the water tank were put thereon. During the test, the position of the marks was not changed. A platform was placed a predetermined position from the equal distance from the center and the end of the water tank, namely, center of one quadrant. At one of the randomly selected 5 points, the mouse was released facing the wall of the water tank, and the time necessary for evacuating on the platform (acquisition latency) was measured. When smoothly evacuated, the mouse was left on the platform for 10 seconds. From the day of water maze test and during the test, polyethylene glycol (PEG) alone or racemate DCP-LA (1 mg/kg), α,α-DCP-LA (0.25 mg/kg), α,β-DCP-LA (0.25 mg/kg), β,α-DCP-LA (0.25 mg/kg), or β,β-DCP-LA (0.25 mg/kg), each dissolved in PEG, was orally administered every day. The water maze test was performed twice a day, and the second test was started at 2 min from the first test. The test was continuously performed for 8 days, and the average value (±SEM) of acquisition latency of continuous 2 days until the mouse reached the platform was calculated (each n=5).

With `CCCCC[C@@H]1C[C@@H]1C[C@@H]1C[C@H]1CCCCCCCC(=O)O` [α,β-DCP-LA, 8-[(1R,2S)-2-{(1R,2R)-2-pentylcyclopropylmethyl}-cyclopropyl]octanoic acid], the “PKC activation induced by the compound after knocking down PKC-ε” value on PKC-ε was “inhibited by knocking down PKC-ε”. Moreover, in test [1], the “acquisition latency as compared to the PEG administration group” value is given as “shortened acquisition latency”, the “acquisition latency as compared to the racemate DCP-LA (1 mg/kg) administration group” value is on record as “significantly shortened acquisition latency” and the “acquisition latency as compared to the α,α-DCP-LA (0.25 mg/kg) administration group” value is recorded as “significantly shortened acquisition latency”.
